Data taken from BindingDB's records for doi:10.1016/s0960-894x(01)00776-4 (Wyeth-Ayerst Research, 2002).
pIC50: −log10 of the molar value.

Test: Inhibition of Src-transformed fibroblast cell proliferation

pIC50: 5.62
SMILES: COc1cc(Nc2c(C#N)cnc3cc(OC)c(OC)cc23)c(C)cc1Cl
